≈ marks a conversion by molar mass, not a printed value.

Holding throughout (assay type): functional
One assay concerns Bacillus subtilis. Description: Antibacterial activity against Bacillus subtilis ATCC 6633 after 24 hr by spectrophotometric method. Conditions: ATCC 6633, 24 h.
The subject of another assay is Candida albicans. Description: Antifungal activity against Candida albicans ATCC 10231 after 48 hr by turbidity based microplate metohd. Conditions: ATCC 10231, 48 h.
The test system of another assay is Escherichia coli. Nature of the assay: Antibacterial activity against Escherichia coli ATCC 25922 after 24 hr by spectrophotometric method. Conditions: ATCC 25922, 24 h.
In a further assay the test system is Pseudomonas aeruginosa. Nature of the assay: Antibacterial activity against Pseudomonas aeruginosa ATCC 27853 after 24 hr by sepctrophotometric method. Conditions: ATCC 27853, 24 h.
For a further assay, the system named is Staphylococcus aureus. Nature of the assay: Antibacterial activity against Staphylococcus aureus ATCC 25923 after 24 hr by spectrophotometric method. Conditions: ATCC 25923, 24 h.
Assay [1] concerns Radical scavenging activity. Nature of the assay: Antioxidant activity assessed as decrease in DPPH free radical level after 20 min by DPPH assay method. On the set-up: concentration or dose not given beside the values. A general note: DPPH is a stable violet radical that fades when it is reduced.
The subject of another assay is Nakaseomyces glabratus. Description: Antifungal activity against Candida glabrata ATCC 36583 after 48 hr by turbidity based microplate metohd. Conditions: ATCC 36583, 48 h.

As to `O=C(CC(=O)c1cc(Cl)c(O[C@@H]2O[C@H](CO)[C@@H](O)[C@H](O)[C@H]2O)cc1O)c1ccccn1`, the MIC – broadly, the least concentration at which growth counts as inhibited – against Bacillus subtilis worked out at 1250 µg/mL (≈ 2750 µM); against Candida albicans, 150 µg/mL (≈ 331 µM); in the assay on Escherichia coli, 19 µg/mL (≈ 41.9 µM); in the assay with Pseudomonas aeruginosa, 19 µg/mL (≈ 41.9 µM); against Staphylococcus aureus it was 150 µg/mL (≈ 331 µM); with Nakaseomyces glabratus, 2500 µg/mL (≈ 5510 µM). In addition, the inhibition (commonly how much of the control response was suppressed) in assay [1] is 85.5%.
`O=C(CC(=O)c1cc(Cl)c(O[C@@H]2O[C@H](CO)[C@@H](O)[C@H](O)[C@H]2O)cc1O)c1cccs1`: the minimal inhibitory concentration (MIC) in the assay on Bacillus subtilis was 625 µg/mL (≈ 1360 µM); in the assay with Candida albicans, 5000 µg/mL (≈ 10900 µM); in the assay on Escherichia coli, 5000 µg/mL (≈ 10900 µM); in the assay on Pseudomonas aeruginosa, 30 µg/mL (≈ 65.4 µM); with Staphylococcus aureus it was 300 µg/mL (≈ 654 µM); in the assay on Nakaseomyces glabratus it was 150 µg/mL (≈ 327 µM). Also, the inhibition in assay [1] came to 81.2%.
As for `O=C(CC(=O)c1cc(Cl)c(O[C@@H]2O[C@H](CO)[C@@H](O)[C@H](O)[C@H]2O)cc1O)c1cccnc1`, the minimal inhibitory concentration (MIC) was determined as 300 µg/mL (≈ 661 µM) with Bacillus subtilis; 10000 µg/mL (≈ 22000 µM) against Candida albicans; 5000 µg/mL (≈ 11000 µM) against Escherichia coli; 5000 µg/mL (≈ 11000 µM) in the assay on Pseudomonas aeruginosa; 5000 µg/mL (≈ 11000 µM) against Staphylococcus aureus; 10000 µg/mL (≈ 22000 µM) in the assay with Nakaseomyces glabratus. In assay [1], the inhibition worked out at 79.5%.
On to `O=C(CC(=O)c1ccc(O[C@@H]2O[C@H](CO)[C@@H](O)[C@H](O)[C@H]2O)cc1O)c1cccs1`, for which the MIC stood at 150 µg/mL (≈ 353 µM) in the assay with Bacillus subtilis; 2500 µg/mL (≈ 5890 µM) in the assay on Candida albicans; 1250 µg/mL (≈ 2950 µM) against Escherichia coli; 150 µg/mL (≈ 353 µM) in the assay on Pseudomonas aeruginosa; 300 µg/mL (≈ 707 µM) with Staphylococcus aureus; 5000 µg/mL (≈ 11800 µM) against Nakaseomyces glabratus. Further, in assay [1], the inhibition worked out at 74.2%.
On to `O=C1O[C@H]([C@@H](O)CO)C(O)=C1O`, for which the inhibition in assay [1] was found to be 98%.
As for `O=C(CC(=O)c1ccc(O[C@@H]2O[C@H](CO)[C@@H](O)[C@H](O)[C@H]2O)cc1O)c1ccccn1`, the MIC in the assay with Bacillus subtilis is 300 µg/mL (≈ 715 µM); against Candida albicans it was 2500 µg/mL (≈ 5960 µM); in the assay on Escherichia coli, 70 µg/mL (≈ 167 µM); against Pseudomonas aeruginosa it was 19 µg/mL (≈ 45.3 µM); in the assay on Staphylococcus aureus, 150 µg/mL (≈ 358 µM); with Nakaseomyces glabratus, 5000 µg/mL (≈ 11900 µM). In assay [1], the inhibition was determined as 79%.
As for `O=C(CC(=O)c1ccc(O[C@@H]2O[C@H](CO)[C@@H](O)[C@H](O)[C@H]2O)cc1O)c1ccco1`, the minimal inhibitory concentration (MIC) worked out at 150 µg/mL (≈ 367 µM) against Bacillus subtilis; 5000 µg/mL (≈ 12200 µM) in the assay with Candida albicans; 2500 µg/mL (≈ 6120 µM) against Escherichia coli; 5000 µg/mL (≈ 12200 µM) against Pseudomonas aeruginosa; 625 µg/mL (≈ 1530 µM) in the assay with Staphylococcus aureus; 5000 µg/mL (≈ 12200 µM) against Nakaseomyces glabratus. Moreover, the inhibition in assay [1] worked out at 84.3%.
As for `OC(Cn1cncn1)(Cn1cncn1)c1ccc(F)cc1F` [FLUCONAZOLE], the MIC in the assay with Candida albicans and in the assay on Nakaseomyces glabratus was 10 µg/mL (≈ 32.7 µM) in each case.
In the case of `O=C(CC(=O)c1cc(Cl)c(O[C@@H]2O[C@H](CO)[C@@H](O)[C@H](O)[C@H]2O)cc1O)c1ccco1`, the MIC is 300 µg/mL (≈ 678 µM) in the assay on Bacillus subtilis; 2500 µg/mL (≈ 5650 µM) against Candida albicans; 70 µg/mL (≈ 158 µM) with Escherichia coli; 19 µg/mL (≈ 42.9 µM) in the assay with Pseudomonas aeruginosa; 150 µg/mL (≈ 339 µM) against Staphylococcus aureus; 5000 µg/mL (≈ 11300 µM) against Nakaseomyces glabratus. Also, in assay [1], the inhibition was 77%.
On to `O=C(CC(=O)c1ccc(O[C@@H]2O[C@H](CO)[C@@H](O)[C@H](O)[C@H]2O)cc1O)c1cccnc1`, for which the minimum inhibitory concentration (MIC) in the assay with Bacillus subtilis stood at 625 µg/mL (≈ 1490 µM); in the assay on Candida albicans, 10000 µg/mL (≈ 23800 µM); against Escherichia coli, 300 µg/mL (≈ 715 µM); against Pseudomonas aeruginosa, 1250 µg/mL (≈ 2980 µM); against Staphylococcus aureus, 150 µg/mL (≈ 358 µM); in the assay on Nakaseomyces glabratus it was 5000 µg/mL (≈ 11900 µM). Moreover, the inhibition in assay [1] came out at 74.2%.
`CC1(C)S[C@@H]2[C@H](NC(=O)[C@H](N)c3ccccc3)C(=O)N2[C@H]1C(=O)O` [AMPICILLIN]: the MIC in the assay with Bacillus subtilis was found to be 5 µg/mL (≈ 14.3 µM); against Escherichia coli, 10 µg/mL (≈ 28.6 µM); against Pseudomonas aeruginosa, 5 µg/mL (≈ 14.3 µM); with Staphylococcus aureus, 19 µg/mL (≈ 54.4 µM).

The record behind these values is ChEMBL document CHEMBL3045102, “Antibacterial, antifungal and antioxidant activity of some new water-soluble -diketones” (2013).
